{
  "source": "patent US6482402B1",
  "about": "“Antimicrobial compositions and methods” (GelTex Pharmaceuticals, Inc., priority 1999, dated 2002)",
  "key": {"C. parvum oocysts [1]": {"system": "C. parvum oocysts", "experiment": "In vitro C. parvum infectivity in Madin Darby Bovine Kidney cells (fluorescent antibody count of infected cells)", "assay_type": "cell-based, Cryptosporidium parvum", "conditions": "MDBK cells, 46 hours of infection, means of 12 high powered fields", "protocol": "Activity of polyfensin compounds for Cryptosporidium parvum in vitro. Combination therapy of Polymer B with paromomycin Madin Darby Bovine Kidney cells were infected with C. parvum oocysts in the presence of media alone, paromomycin (2 and 0.25 mg/ml), Polymer B (0.01 or 0.001 mg/ml) or Polymer B (0.01 or 0.001 mg/ml) plus paromomycin at 0.25 mg/ml. After 4 hours of treatment, polymer was removed and replaced with media. After 46 hours of infection the monolayers were fixed, stained with fluorescent antibodies to cryptosporidium, and the numbers of infected cells were enumerated. Parasite numbers represent the means of 12 high powered fields, and numbers of parasites were normalized relative to treatment with media alone (arbitrarily set at 100). […] In vitro Combination therapy of Polymer A with paromomycin. Madin Darby Bovine kidney cells were infected with C. parvum oocysts in the presence of media alone, paromomycin (2 and 0.25 mg/ml), Polymer A (0.01 or 0.001 mg/ml) or Polymer A (0.0 1 or 0.00 1 mg/ml plus paromomycin at 0.25 mg/ml). After 4 hours of treatment, polymer was removed and replaced with media. After 46 hours of infection the monolayers were fixed, stained with fluorescent antibodies to cryptosporidium, and the numbers of infected cells were enumerated. Parasite numbers represent the means of 12 high powered fields, and numbers of parasites were normalized relative to treatment with media alone (arbitrarily set at 100)."}, "C. parvum oocysts [2]": {"system": "C. parvum oocysts", "experiment": "In vivo oocyst shedding in C. parvum infected SCID mice", "conditions": "SCID mice infected day 0; prm alone 500 mg/kg/day by oral gavage from day 7; fecal smears, acid fast staining; water alone 25", "protocol": "In vivo activity of selected polymers in combination with parmomycin\nSevere combined immunodeficient mice (SCID) were infected with C. parvum oocysts on day 0. On day 7, mice were treated with water or Polymers A, E and D by delivery in maple flavored drinking water at 2000 mg/kg/day. For each treatment, mice additionally received water or 500 mg/kg/day paromomycin (prm) by oral gavage. Oocyst shedding was quantitated in fecal smears by acid fast staining. Average numbers of oocysts shed were as follows: Treatment with water alone, 25; treatment with prm alone 12. Treatment with polymers alone gave modest changes in oocysts shedding and ranged from ˜20% reduction in oocysts; to a ˜20% increase in shedding, relative to treatment with water alone. Combination of polymers with prm gave reductions in oocysts in the range of 50-90% relative to treatment with prm alone."}},
  "note": "Values joined by “and” are separate entries in the source; they are usually repeats but may differ in a detail not shown here. Equal entries are not always repeated.",
  "data": [
    {"smiles": "NC[C@@H]1O[C@H](O[C@H]2[C@@H](O)[C@H](O[C@@H]3[C@@H](O)[C@H](N)C[C@H](N)[C@H]3O[C@H]3O[C@H](CO)[C@@H](O)[C@H](O)[C@H]3N)O[C@@H]2CO)[C@H](N)[C@@H](O)[C@@H]1O", "note": "[paromomycin]", "values": [
      {"measurement": "parasite numbers normalized relative to treatment with media alone (arbitrarily set at 100)", "setting": "C. parvum oocysts [1]; paromomycin alone at 0.25 mg/ml", "result": "61.5 and 73.0"},
      {"measurement": "parasite numbers normalized relative to treatment with media alone (arbitrarily set at 100)", "setting": "C. parvum oocysts [1]; paromomycin alone at 2 mg/ml", "result": 15.3},
      {"measurement": "parasite numbers normalized relative to treatment with media alone (arbitrarily set at 100)", "setting": "C. parvum oocysts [1]; paromomycin alone at 2 mg/ml, listed as parmomycin", "result": 15.4},
      {"measurement": "Average numbers of oocysts shed", "setting": "C. parvum oocysts [2]", "result": 12}
    ]}
  ]
}
